From patent publication US8076487B2, “Pyridone derivative and herbicide” (Kumiai Chemical Industry Co., Ltd., priority 2006, dated 2011)

Legend:
Type in all cases: in vivo
[1] = system: green foxtail (Setaria viridis (L.) P. Beauv.); assay: Test Example 3: herbicidal effect by application to upland field (foliage treatment); details: 14th day after application; for herbicidal effect (index), Green Foxtail: foliage treatment, plants grown two weeks, 1,000 g active ingredient per hectare; for herbicidal effect, Green Foxtail: foliage treatment, 1,000 g active ingredient per 1 hectare, greenhouse
Summary of the method: (§1)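 Effect scores come from a standard grading 14 days after plants, grown from seed for two weeks in field soil in a greenhouse, were sprayed over the top with wettable powder in water at 1,000 g active ingredient per hectare.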

[2] = system: slender amaranth (Amaranthus viridis L.); assay: as above; details: 14th day after application; for herbicidal effect (index), Slender Amaranth: foliage treatment, plants grown two weeks, 1,000 g active ingredient per hectare; for herbicidal effect, Slender Amaranth: foliage treatment, 1,000 g active ingredient per 1 hectare, greenhouse
Summary of the method: as §1

[3] = system: barnyardgrass (Echinochloa crus-galli (L.) P. Beauv. var. crus-galli); assay: as above; details: 14th day after application; for herbicidal effect (index), Barnyardgrass: foliage treatment, plants grown two weeks, 1,000 g active ingredient per hectare; for herbicidal effect, Barnyardgrass: foliage treatment, 1,000 g active ingredient per 1 hectare, greenhouse
Summary of the method: as §1

[4] = system: velvetleaf (Abutilon theophrasti medicus); assay: as above; details: 14th day after application; for herbicidal effect (index), Velvetleaf: foliage treatment, plants grown two weeks, 1,000 g active ingredient per hectare; for herbicidal effect, Velvetleaf: foliage treatment, 1,000 g active ingredient per 1 hectare, greenhouse
Summary of the method: as §1

[5] = system: green foxtail (Setaria viridis (L.) P. Beauv.); assay: Test Example 2: herbicidal effect by soil application to upland field; details: soil surface spray, upland field soil, 1,000 g active ingredient per hectare, 21st day after application
Summary of the method: (§2)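 In this soil-application test, sown and soil-covered pots are sprayed uniformly with the formulation diluted in water, giving 1,000 g of active ingredient per ha in a volume of 1,000 L per ha. Plants then grow in a greenhouse for 21 days before herbicidal scoring by a standard scale.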

[6] = system: slender amaranth (Amaranthus viridis L.); assay: as above; details: soil surface spray, upland field soil, 1,000 g active ingredient per hectare, 21st day after application
Summary of the method: as §2

[7] = system: barnyardgrass (Echinochloa crus-galli (L.) P. Beauv. var. crus-galli); assay: as above; details: soil surface spray, upland field soil, 1,000 g active ingredient per hectare, 21st day after application
Summary of the method: as §2

[8] = system: velvetleaf (Abutilon theophrasti medicus); assay: as above; details: soil surface spray, upland field soil, 1,000 g active ingredient per hectare, 21st day after application
Summary of the method: as §2

[9] = system: early watergrass (Echinochloa oryzicola Vasing); assay: Test Example 1: herbicidal effect by soil application to paddy field; details: paddy field soil application; active ingredient 1,000 g per 1 hectare; wettable powder added dropwise to water surface the day after sowing; examined on the 21st day after application
Summary of the method: (§3)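 Under greenhouse conditions, seeds sown on puddled paddy soil in 100 cm2 pots under 3 cm of standing water received the test compound; injury was assessed with a standard scoring scheme three weeks (day 21) after treatment.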

[10] = system: heartshape false pickerelweed (Monochoria vaginalis (Burm.f.) C.Presl); assay: as above; details: paddy field soil application; active ingredient 1,000 g per 1 hectare; wettable powder added dropwise to water surface the day after sowing; examined on the 21st day after application
Summary of the method: as §3

[11] = system: Japanese bulrush (Scirpus juncoides Roxb.); assay: as above; details: paddy field soil application; active ingredient 1,000 g per 1 hectare; wettable powder added dropwise to water surface the day after sowing; examined on the 21st day after application
Summary of the method: as §3

| SMILES | herbicidal effect (index), Green Foxtail [1] | herbicidal effect (index), Slender Amaranth [2] | herbicidal effect (index), Barnyardgrass [3] | herbicidal effect (index), Velvetleaf [4] | herbicidal effect (index), Green Foxtail [5] | herbicidal effect (index), Slender Amaranth [6] | herbicidal effect (index), Barnyardgrass [7] | herbicidal effect (index), Velvetleaf [8] | herbicidal effect, Echinochloa oryzicola Vasing [9] | herbicidal effect, Monochoria vaginalis (Burm. f.) C. Presl [10] | herbicidal effect, Scirpus juncoides Roxb. [11] | herbicidal effect, Green Foxtail [1] | herbicidal effect, Slender Amaranth [2] | herbicidal effect, Barnyardgrass [3] | herbicidal effect, Velvetleaf [4] |
| --- | --- | --- | --- | --- | --- | --- | --- | --- | --- | --- | --- | --- | --- | --- | --- |
| O=C1CCCC(O)=C1C(=O)c1ccc(C(F)(F)F)n(C2CCCC2)c1=O [I-18] | 5 (90% or more of herbicidal effect and crop phytotoxicity) | 5 (90% or more of herbicidal effect and crop phytotoxicity) | 5 (90% or more of herbicidal effect and crop phytotoxicity) | 5 (90% or more of herbicidal effect and crop phytotoxicity) | 5 (90% or more of herbicidal effect and crop phytotoxicity) | 5 (90% or more of herbicidal effect and crop phytotoxicity) | 5 (90% or more of herbicidal effect and crop phytotoxicity) | 5 (90% or more of herbicidal effect and crop phytotoxicity) | 5 (90% or more of herbicidal effect and crop phytotoxicity) | 5 (90% or more of herbicidal effect and crop phytotoxicity) | 5 (90% or more of herbicidal effect and crop phytotoxicity) |  |  |  |  |
| COC(C)Cn1c(C(F)(F)F)ccc(C(=O)c2cnn(C)c2O)c1=O (stereo not shown) [IV-38] |  |  |  |  | 4 (70 to less than 90% of herbicidal effect and crop phytotoxicity) | 5 (90% or more of herbicidal effect and crop phytotoxicity) | 5 (90% or more of herbicidal effect and crop phytotoxicity) | 5 (90% or more of herbicidal effect and crop phytotoxicity) | 5 (90% or more of herbicidal effect and crop phytotoxicity) | 5 (90% or more of herbicidal effect and crop phytotoxicity) | 5 (90% or more of herbicidal effect and crop phytotoxicity) | 5 (90% or more of herbicidal effect and crop phytotoxicity) | 5 (90% or more of herbicidal effect and crop phytotoxicity) | 5 (90% or more of herbicidal effect and crop phytotoxicity) | 5 (90% or more of herbicidal effect and crop phytotoxicity) |
| CN(C)C=Nn1c(C(F)(F)F)ccc(C(=O)C2=C(O)CCCC2=O)c1=O [I-186] |  |  |  |  | 5 (90% or more of herbicidal effect and crop phytotoxicity) | 5 (90% or more of herbicidal effect and crop phytotoxicity) | 5 (90% or more of herbicidal effect and crop phytotoxicity) | 5 (90% or more of herbicidal effect and crop phytotoxicity) | 5 (90% or more of herbicidal effect and crop phytotoxicity) | 5 (90% or more of herbicidal effect and crop phytotoxicity) | 5 (90% or more of herbicidal effect and crop phytotoxicity) | 5 (90% or more of herbicidal effect and crop phytotoxicity) | 5 (90% or more of herbicidal effect and crop phytotoxicity) | 5 (90% or more of herbicidal effect and crop phytotoxicity) | 5 (90% or more of herbicidal effect and crop phytotoxicity) |
| Cn1ncc(C(=O)c2ccc(C(F)(F)F)n(CC3CCCO3)c2=O)c1O (stereo not shown) [IV-129] |  |  |  |  | 3 (50 to less than 70% of herbicidal effect and crop phytotoxicity) | 5 (90% or more of herbicidal effect and crop phytotoxicity) | 4 (70 to less than 90% of herbicidal effect and crop phytotoxicity) | 5 (90% or more of herbicidal effect and crop phytotoxicity) | 5 (90% or more of herbicidal effect and crop phytotoxicity) | 5 (90% or more of herbicidal effect and crop phytotoxicity) | 5 (90% or more of herbicidal effect and crop phytotoxicity) | 4 (70 to less than 90% of herbicidal effect and crop phytotoxicity) | 5 (90% or more of herbicidal effect and crop phytotoxicity) | 5 (90% or more of herbicidal effect and crop phytotoxicity) | 5 (90% or more of herbicidal effect and crop phytotoxicity) |
| CCCCn1c(C(F)(F)F)ccc(C(=O)c2cnn(C)c2O)c1=O [IV-6] |  |  |  |  | 5 (90% or more of herbicidal effect and crop phytotoxicity) | 5 (90% or more of herbicidal effect and crop phytotoxicity) | 5 (90% or more of herbicidal effect and crop phytotoxicity) | 5 (90% or more of herbicidal effect and crop phytotoxicity) | 5 (90% or more of herbicidal effect and crop phytotoxicity) | 5 (90% or more of herbicidal effect and crop phytotoxicity) | 5 (90% or more of herbicidal effect and crop phytotoxicity) | 5 (90% or more of herbicidal effect and crop phytotoxicity) | 5 (90% or more of herbicidal effect and crop phytotoxicity) | 5 (90% or more of herbicidal effect and crop phytotoxicity) | 5 (90% or more of herbicidal effect and crop phytotoxicity) |
| CCSCn1c(C(F)(F)F)ccc(C(=O)C2=C(O)CCCC2=O)c1=O [I-48] | 5 (90% or more of herbicidal effect and crop phytotoxicity) | 5 (90% or more of herbicidal effect and crop phytotoxicity) | 5 (90% or more of herbicidal effect and crop phytotoxicity) | 5 (90% or more of herbicidal effect and crop phytotoxicity) | 4 (70 to less than 90% of herbicidal effect and crop phytotoxicity) | 5 (90% or more of herbicidal effect and crop phytotoxicity) | 5 (90% or more of herbicidal effect and crop phytotoxicity) | 5 (90% or more of herbicidal effect and crop phytotoxicity) | 5 (90% or more of herbicidal effect and crop phytotoxicity) | 5 (90% or more of herbicidal effect and crop phytotoxicity) | 5 (90% or more of herbicidal effect and crop phytotoxicity) |  |  |  |  |
| COCCn1c(C(F)(F)F)ccc(C(=O)C2=C(O)CCCC2=O)c1=O [I-31] | 5 (90% or more of herbicidal effect and crop phytotoxicity) | 5 (90% or more of herbicidal effect and crop phytotoxicity) | 5 (90% or more of herbicidal effect and crop phytotoxicity) | 5 (90% or more of herbicidal effect and crop phytotoxicity) | 5 (90% or more of herbicidal effect and crop phytotoxicity) | 5 (90% or more of herbicidal effect and crop phytotoxicity) | 5 (90% or more of herbicidal effect and crop phytotoxicity) | 5 (90% or more of herbicidal effect and crop phytotoxicity) | 5 (90% or more of herbicidal effect and crop phytotoxicity) | 5 (90% or more of herbicidal effect and crop phytotoxicity) | 5 (90% or more of herbicidal effect and crop phytotoxicity) |  |  |  |  |
| CCNn1c(C(F)(F)F)ccc(C(=O)C2=C(O)CCCC2=O)c1=O [I-158] |  |  |  |  | 5 (90% or more of herbicidal effect and crop phytotoxicity) | 5 (90% or more of herbicidal effect and crop phytotoxicity) | 5 (90% or more of herbicidal effect and crop phytotoxicity) | 5 (90% or more of herbicidal effect and crop phytotoxicity) | 5 (90% or more of herbicidal effect and crop phytotoxicity) | 5 (90% or more of herbicidal effect and crop phytotoxicity) | 5 (90% or more of herbicidal effect and crop phytotoxicity) | 5 (90% or more of herbicidal effect and crop phytotoxicity) | 5 (90% or more of herbicidal effect and crop phytotoxicity) | 5 (90% or more of herbicidal effect and crop phytotoxicity) | 5 (90% or more of herbicidal effect and crop phytotoxicity) |
